Article PMC11480411, “Mucosal sugars delineate pyrazine vs pyrazinone autoinducer signaling in Klebsiella oxytoca” (Nature Communications, 2024)

What was measured:
Assay in all cases: PRESTO-Tango GPCR screen
Assay type in all cases: cell-based
Conditions in all cases: 100 µM
[1] = target: T1, ADRA1A (Homo sapiens, UniProt P35348)
T1 construct: purchased PRESTO-Tango GPCR kit (Roth lab / Addgene)
Procedure, shortened: (§1)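 A Tango reporter setup in HTLA cells was used, with each receptor introduced by transient transfection. Compound exposure lasted 20 h at 100 μM final, followed by Bright-Glo luminescence measurement; activation was expressed relative to PBS-treated wells.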

[2] = target: T2, CCR5 (Homo sapiens, UniProt P51681)
T2 construct: purchased PRESTO-Tango GPCR kit (Roth lab / Addgene)
Procedure, shortened: as §1

[3] = target: T3, CHRM1 (Homo sapiens, UniProt P11229)
T3 construct: purchased PRESTO-Tango GPCR kit (Roth lab / Addgene)
Procedure, shortened: as §1

[4] = target: T4, CHRM5 (Homo sapiens, UniProt P08912)
T4 construct: purchased PRESTO-Tango GPCR kit (Roth lab / Addgene)
Procedure, shortened: as §1

[5] = target: T5, CXCR1 (Homo sapiens, UniProt P25024)
T5 construct: purchased PRESTO-Tango GPCR kit (Roth lab / Addgene)
Procedure, shortened: as §1

[6] = target: T6, F2RL1 (Homo sapiens, UniProt P55085)
T6 construct: purchased PRESTO-Tango GPCR kit (Roth lab / Addgene)
Procedure, shortened: as §1

[7] = target: T7, GHRHR (Homo sapiens, UniProt Q02643)
T7 construct: purchased PRESTO-Tango GPCR kit (Roth lab / Addgene)
Procedure, shortened: as §1

[8] = target: T8, GPR111 (Homo sapiens, UniProt Q8IZF7)
T8 construct: purchased PRESTO-Tango GPCR kit (Roth lab / Addgene)
Procedure, shortened: as §1

[9] = target: T9, GPR120 (Homo sapiens, UniProt Q5NUL3)
T9 construct: purchased PRESTO-Tango GPCR kit (Roth lab / Addgene)
Procedure, shortened: as §1

[10] = target: T10, GPR157 (Homo sapiens, UniProt Q5UAW9)
T10 construct: purchased PRESTO-Tango GPCR kit (Roth lab / Addgene)
Procedure, shortened: as §1

[11] = target: T11, GPR160 (Homo sapiens, UniProt Q9UJ42)
T11 construct: purchased PRESTO-Tango GPCR kit (Roth lab / Addgene)
Procedure, shortened: as §1

[12] = target: T12, GPR19 (Homo sapiens, UniProt Q15760)
T12 construct: purchased PRESTO-Tango GPCR kit (Roth lab / Addgene)
Procedure, shortened: as §1

[13] = target: T13, GPR20 (Homo sapiens, UniProt Q99678)
T13 construct: purchased PRESTO-Tango GPCR kit (Roth lab / Addgene)
Procedure, shortened: as §1

[14] = target: T14, GPR37 (Homo sapiens, UniProt O15354)
T14 construct: purchased PRESTO-Tango GPCR kit (Roth lab / Addgene)
Procedure, shortened: as §1

[15] = target: T15, GPR52 (Homo sapiens, UniProt Q9Y2T5)
T15 construct: purchased PRESTO-Tango GPCR kit (Roth lab / Addgene)
Procedure, shortened: as §1

[16] = target: T16, GPR85 (Homo sapiens, UniProt P60893)
T16 construct: purchased PRESTO-Tango GPCR kit (Roth lab / Addgene)
Procedure, shortened: as §1

[17] = target: T17, GPRC5A (Homo sapiens, UniProt Q8NFJ5)
T17 construct: purchased PRESTO-Tango GPCR kit (Roth lab / Addgene)
Procedure, shortened: as §1

[18] = target: T18, HCA1 (Homo sapiens, UniProt Q9BXC0)
T18 construct: purchased PRESTO-Tango GPCR kit (Roth lab / Addgene)
Procedure, shortened: as §1

[19] = target: T19, LPAR4 (Homo sapiens, UniProt Q99677)
T19 construct: purchased PRESTO-Tango GPCR kit (Roth lab / Addgene)
Procedure, shortened: as §1

[20] = target: T20, LTB4R2B (Homo sapiens, UniProt Q9NPC1)
T20 construct: purchased PRESTO-Tango GPCR kit (Roth lab / Addgene)
Procedure, shortened: as §1

[21] = target: T21, MCHR2 (Homo sapiens, UniProt Q969V1)
T21 construct: purchased PRESTO-Tango GPCR kit (Roth lab / Addgene)
Procedure, shortened: as §1

[22] = target: T22, MLNR (Homo sapiens, UniProt O43193)
T22 construct: purchased PRESTO-Tango GPCR kit (Roth lab / Addgene)
Procedure, shortened: as §1

[23] = target: T23, MRGPRX3 (Homo sapiens, UniProt Q96LB0)
T23 construct: purchased PRESTO-Tango GPCR kit (Roth lab / Addgene)
Procedure, shortened: as §1

[24] = target: T24, NMBR (Homo sapiens, UniProt P28336)
T24 construct: purchased PRESTO-Tango GPCR kit (Roth lab / Addgene)
Procedure, shortened: as §1

[25] = target: T25, OPN3 (Homo sapiens, UniProt Q9H1Y3)
T25 construct: purchased PRESTO-Tango GPCR kit (Roth lab / Addgene)
Procedure, shortened: as §1

[26] = target: T26, OPRL1 (Homo sapiens, UniProt P41146)
T26 construct: purchased PRESTO-Tango GPCR kit (Roth lab / Addgene)
Procedure, shortened: as §1

[27] = target: T27, OXTR (Homo sapiens, UniProt P30559)
T27 construct: purchased PRESTO-Tango GPCR kit (Roth lab / Addgene)
Procedure, shortened: as §1

[28] = target: T28, P2RY10 (Homo sapiens, UniProt O00398)
T28 construct: purchased PRESTO-Tango GPCR kit (Roth lab / Addgene)
Procedure, shortened: as §1

[29] = target: T29, P2RY13 (Homo sapiens, UniProt Q9BPV8)
T29 construct: purchased PRESTO-Tango GPCR kit (Roth lab / Addgene)
Procedure, shortened: as §1

[30] = target: T30, PTGDR (Homo sapiens, UniProt Q13258)
T30 construct: purchased PRESTO-Tango GPCR kit (Roth lab / Addgene)
Procedure, shortened: as §1

[31] = target: T31, PTGER2 (Homo sapiens, UniProt P43116)
T31 construct: purchased PRESTO-Tango GPCR kit (Roth lab / Addgene)
Procedure, shortened: as §1

[32] = target: T32, TAAR8 (Homo sapiens, UniProt Q969N4)
T32 construct: purchased PRESTO-Tango GPCR kit (Roth lab / Addgene)
Procedure, shortened: as §1

[33] = target: T33, TAAR9 (Homo sapiens, UniProt Q96RI9)
T33 construct: purchased PRESTO-Tango GPCR kit (Roth lab / Addgene)
Procedure, shortened: as §1

[34] = target: T34, TACR2 (Homo sapiens, UniProt P21452)
T34 construct: purchased PRESTO-Tango GPCR kit (Roth lab / Addgene)
Procedure, shortened: as §1

[35] = target: T35, TBXA2R (Homo sapiens, UniProt P21731)
T35 construct: purchased PRESTO-Tango GPCR kit (Roth lab / Addgene)
Procedure, shortened: as §1

T12 sequence (Q15760 whole entry): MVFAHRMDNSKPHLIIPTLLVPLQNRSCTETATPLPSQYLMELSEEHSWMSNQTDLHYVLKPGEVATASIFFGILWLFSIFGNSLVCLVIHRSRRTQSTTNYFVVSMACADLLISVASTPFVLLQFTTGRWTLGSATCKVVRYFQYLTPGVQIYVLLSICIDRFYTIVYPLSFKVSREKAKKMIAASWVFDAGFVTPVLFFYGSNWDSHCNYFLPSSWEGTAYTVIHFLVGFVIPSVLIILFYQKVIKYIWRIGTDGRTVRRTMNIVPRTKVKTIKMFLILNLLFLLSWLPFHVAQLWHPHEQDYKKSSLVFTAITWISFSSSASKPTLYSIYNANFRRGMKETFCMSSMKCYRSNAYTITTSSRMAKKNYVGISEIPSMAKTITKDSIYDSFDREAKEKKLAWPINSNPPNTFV
T2 sequence (P51681 whole entry): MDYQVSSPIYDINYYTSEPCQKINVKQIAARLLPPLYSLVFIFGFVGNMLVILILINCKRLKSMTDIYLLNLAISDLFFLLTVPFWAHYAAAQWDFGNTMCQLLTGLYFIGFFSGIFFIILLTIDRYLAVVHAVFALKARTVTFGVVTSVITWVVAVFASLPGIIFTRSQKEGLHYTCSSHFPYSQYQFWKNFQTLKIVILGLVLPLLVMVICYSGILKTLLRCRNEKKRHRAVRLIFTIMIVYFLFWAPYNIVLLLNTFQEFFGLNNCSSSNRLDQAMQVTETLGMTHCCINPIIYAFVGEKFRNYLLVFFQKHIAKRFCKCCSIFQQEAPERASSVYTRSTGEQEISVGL
T7 sequence (Q02643 23-423): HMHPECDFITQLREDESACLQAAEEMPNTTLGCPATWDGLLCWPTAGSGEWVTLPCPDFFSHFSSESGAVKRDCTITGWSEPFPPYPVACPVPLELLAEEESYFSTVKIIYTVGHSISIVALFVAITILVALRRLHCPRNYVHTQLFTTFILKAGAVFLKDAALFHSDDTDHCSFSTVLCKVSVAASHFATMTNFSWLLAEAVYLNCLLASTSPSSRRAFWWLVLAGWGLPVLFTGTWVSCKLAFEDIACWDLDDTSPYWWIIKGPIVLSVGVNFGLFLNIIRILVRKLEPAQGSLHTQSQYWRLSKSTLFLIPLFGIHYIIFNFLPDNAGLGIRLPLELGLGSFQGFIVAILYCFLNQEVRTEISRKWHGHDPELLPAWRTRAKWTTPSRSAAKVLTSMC
T8 sequence (Q8IZF7 whole entry): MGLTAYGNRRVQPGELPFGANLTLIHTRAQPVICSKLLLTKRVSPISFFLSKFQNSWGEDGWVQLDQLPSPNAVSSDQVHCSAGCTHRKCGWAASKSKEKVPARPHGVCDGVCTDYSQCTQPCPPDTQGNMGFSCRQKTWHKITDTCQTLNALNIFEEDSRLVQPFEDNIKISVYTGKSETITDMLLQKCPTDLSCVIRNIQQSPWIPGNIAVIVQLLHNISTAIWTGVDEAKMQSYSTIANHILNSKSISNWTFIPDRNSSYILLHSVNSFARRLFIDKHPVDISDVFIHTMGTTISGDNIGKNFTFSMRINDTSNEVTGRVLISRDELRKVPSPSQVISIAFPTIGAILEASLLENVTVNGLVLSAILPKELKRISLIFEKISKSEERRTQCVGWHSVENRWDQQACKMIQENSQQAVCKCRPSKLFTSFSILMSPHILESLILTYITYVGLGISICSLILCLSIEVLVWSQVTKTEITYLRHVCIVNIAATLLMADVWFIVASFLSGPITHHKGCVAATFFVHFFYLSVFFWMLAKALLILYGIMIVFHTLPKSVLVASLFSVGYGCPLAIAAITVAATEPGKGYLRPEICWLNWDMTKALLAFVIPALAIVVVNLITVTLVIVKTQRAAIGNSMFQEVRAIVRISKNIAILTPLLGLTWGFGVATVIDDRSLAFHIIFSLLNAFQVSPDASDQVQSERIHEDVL
T3 sequence (P11229 whole entry): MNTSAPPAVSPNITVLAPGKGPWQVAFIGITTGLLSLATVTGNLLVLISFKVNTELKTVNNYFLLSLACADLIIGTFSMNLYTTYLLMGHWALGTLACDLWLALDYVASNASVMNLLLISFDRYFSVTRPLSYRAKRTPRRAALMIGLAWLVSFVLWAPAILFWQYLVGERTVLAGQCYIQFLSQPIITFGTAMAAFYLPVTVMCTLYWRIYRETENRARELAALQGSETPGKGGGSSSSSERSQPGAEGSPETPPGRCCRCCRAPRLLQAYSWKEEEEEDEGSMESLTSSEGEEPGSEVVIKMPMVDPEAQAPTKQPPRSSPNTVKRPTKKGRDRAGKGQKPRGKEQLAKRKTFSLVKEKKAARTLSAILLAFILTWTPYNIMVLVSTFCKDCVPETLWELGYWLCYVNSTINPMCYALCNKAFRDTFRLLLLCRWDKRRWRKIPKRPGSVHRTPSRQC
T22 sequence (O43193 whole entry): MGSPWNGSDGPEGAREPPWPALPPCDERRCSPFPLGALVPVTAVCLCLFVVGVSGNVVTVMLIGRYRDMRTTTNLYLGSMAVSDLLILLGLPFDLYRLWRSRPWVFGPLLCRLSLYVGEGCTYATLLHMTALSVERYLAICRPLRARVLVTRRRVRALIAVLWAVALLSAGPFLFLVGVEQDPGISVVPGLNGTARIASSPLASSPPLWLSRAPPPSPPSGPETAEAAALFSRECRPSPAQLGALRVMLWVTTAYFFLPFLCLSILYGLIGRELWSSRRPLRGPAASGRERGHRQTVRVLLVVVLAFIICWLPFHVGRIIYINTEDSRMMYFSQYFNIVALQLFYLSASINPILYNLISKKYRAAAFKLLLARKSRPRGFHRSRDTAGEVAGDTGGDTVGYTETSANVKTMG
T10 sequence (Q5UAW9 whole entry): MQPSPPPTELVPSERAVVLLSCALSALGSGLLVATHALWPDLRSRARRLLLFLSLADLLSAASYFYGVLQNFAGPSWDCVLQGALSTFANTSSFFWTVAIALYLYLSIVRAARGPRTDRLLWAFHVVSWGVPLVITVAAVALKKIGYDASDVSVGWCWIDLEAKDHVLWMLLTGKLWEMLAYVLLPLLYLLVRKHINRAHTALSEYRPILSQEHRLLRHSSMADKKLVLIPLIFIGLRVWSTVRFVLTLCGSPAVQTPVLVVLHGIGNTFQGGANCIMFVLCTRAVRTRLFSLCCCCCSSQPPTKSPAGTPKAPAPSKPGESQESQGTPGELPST
T11 sequence (Q9UJ42 whole entry): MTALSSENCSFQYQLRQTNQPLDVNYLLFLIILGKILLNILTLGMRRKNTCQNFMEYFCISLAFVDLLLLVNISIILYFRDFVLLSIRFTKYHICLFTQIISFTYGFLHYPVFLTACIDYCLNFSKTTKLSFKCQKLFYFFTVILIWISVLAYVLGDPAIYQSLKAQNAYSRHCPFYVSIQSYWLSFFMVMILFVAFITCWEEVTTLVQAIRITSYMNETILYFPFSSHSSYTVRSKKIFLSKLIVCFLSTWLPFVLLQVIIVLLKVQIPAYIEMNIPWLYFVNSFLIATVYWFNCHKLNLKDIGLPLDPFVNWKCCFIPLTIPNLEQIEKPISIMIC
T25 sequence (Q9H1Y3 whole entry): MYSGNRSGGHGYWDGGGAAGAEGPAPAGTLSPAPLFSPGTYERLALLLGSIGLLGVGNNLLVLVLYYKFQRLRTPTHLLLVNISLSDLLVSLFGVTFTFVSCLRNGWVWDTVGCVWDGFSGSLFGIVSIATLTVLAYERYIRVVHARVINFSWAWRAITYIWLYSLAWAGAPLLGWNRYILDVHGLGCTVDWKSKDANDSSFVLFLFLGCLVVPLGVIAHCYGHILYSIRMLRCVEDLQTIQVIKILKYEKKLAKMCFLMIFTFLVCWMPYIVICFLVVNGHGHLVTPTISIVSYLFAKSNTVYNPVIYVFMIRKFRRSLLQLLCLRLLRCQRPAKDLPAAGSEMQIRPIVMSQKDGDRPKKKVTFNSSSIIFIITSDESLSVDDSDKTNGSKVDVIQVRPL
T4 sequence (P08912 whole entry): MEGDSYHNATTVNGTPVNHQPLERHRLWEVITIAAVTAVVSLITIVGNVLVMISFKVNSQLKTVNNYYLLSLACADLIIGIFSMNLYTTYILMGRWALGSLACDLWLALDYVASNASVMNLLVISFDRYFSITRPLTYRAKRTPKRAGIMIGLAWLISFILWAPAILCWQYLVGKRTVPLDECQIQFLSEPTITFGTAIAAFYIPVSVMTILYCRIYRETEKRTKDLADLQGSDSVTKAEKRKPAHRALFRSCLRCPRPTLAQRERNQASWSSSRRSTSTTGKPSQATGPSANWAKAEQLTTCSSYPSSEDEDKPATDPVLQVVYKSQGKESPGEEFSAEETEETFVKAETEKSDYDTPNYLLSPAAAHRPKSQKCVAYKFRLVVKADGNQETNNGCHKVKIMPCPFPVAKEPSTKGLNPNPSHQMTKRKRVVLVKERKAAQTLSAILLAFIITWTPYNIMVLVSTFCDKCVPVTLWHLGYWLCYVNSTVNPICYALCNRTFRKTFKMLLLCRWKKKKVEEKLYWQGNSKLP
T31 sequence (P43116 whole entry): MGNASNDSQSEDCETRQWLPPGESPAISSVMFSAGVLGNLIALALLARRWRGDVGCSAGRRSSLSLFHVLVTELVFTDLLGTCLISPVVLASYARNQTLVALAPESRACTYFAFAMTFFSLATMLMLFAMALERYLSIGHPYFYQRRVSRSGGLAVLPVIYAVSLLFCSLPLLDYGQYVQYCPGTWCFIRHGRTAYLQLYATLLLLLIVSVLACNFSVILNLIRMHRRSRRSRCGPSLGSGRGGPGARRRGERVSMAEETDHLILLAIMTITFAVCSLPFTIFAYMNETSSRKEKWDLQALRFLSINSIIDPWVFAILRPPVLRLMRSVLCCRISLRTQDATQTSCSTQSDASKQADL

SMILES	GPCR activation (heatmap value) [1]	GPCR activation (heatmap value) [2]	GPCR activation (heatmap value) [3]	GPCR activation (heatmap value) [4]	GPCR activation (heatmap value) [5]	GPCR activation (heatmap value) [6]	GPCR activation (heatmap value) [7]	GPCR activation (heatmap value) [8]	GPCR activation (heatmap value) [9]	GPCR activation (heatmap value) [10]	GPCR activation (heatmap value) [11]	GPCR activation (heatmap value) [12]	GPCR activation (heatmap value) [13]	GPCR activation (heatmap value) [14]	GPCR activation (heatmap value) [15]	GPCR activation (heatmap value) [16]	GPCR activation (heatmap value) [17]	GPCR activation (heatmap value) [18]	GPCR activation (heatmap value) [19]	GPCR activation (heatmap value) [20]	further results
CC(C)Cc1ncc(CCCCNC(=N)N)[nH]c1=O [3-Homo]	-0.07966	0.4723	-1.546	-0.008955	0.5406	-0.2678	0.5021	-0.06522	0.1572	0.207	0.53	-0.2115	0.638	-0.008314	0.2473	-0.7717	0.04883	-0.6134	-0.163	0.02731	GPCR activation (heatmap value) [21]: -0.05748; GPCR activation (heatmap value) [22]: -0.3794; GPCR activation (heatmap value) [23]: -1.005; GPCR activation (heatmap value) [24]: 0.06446; GPCR activation (heatmap value) [25]: 0.7317; GPCR activation (heatmap value) [26]: 0.777; GPCR activation (heatmap value) [27]: 0.4883; GPCR activation (heatmap value) [28]: -0.398; GPCR activation (heatmap value) [29]: 0.4611; GPCR activation (heatmap value) [30]: 0.1368; GPCR activation (heatmap value) [31]: -0.3082; GPCR activation (heatmap value) [32]: -0.2862; GPCR activation (heatmap value) [33]: -0.5012; GPCR activation (heatmap value) [34]: 0.6939; GPCR activation (heatmap value) [35]: 0.3386
CC(C)Cc1ncc(CCCNC(=N)N)[nH]c1=O [compound 3]	-0.2156	-0.6917	-1.184	0.7902	0.1868	0.6997	0.3749	-1.0133	0.8927	0.4215	0.6688	-0.1336	1.634	-0.4356	0.9036	-0.1892	-0.3148	0.05882	0.3739	-1.038	GPCR activation (heatmap value) [21]: -1.212; GPCR activation (heatmap value) [22]: -1.345; GPCR activation (heatmap value) [23]: -1.319; GPCR activation (heatmap value) [24]: 0.762; GPCR activation (heatmap value) [25]: 0.9288; GPCR activation (heatmap value) [26]: 0.326; GPCR activation (heatmap value) [27]: 0.1075; GPCR activation (heatmap value) [28]: -0.2181; GPCR activation (heatmap value) [29]: -0.6143; GPCR activation (heatmap value) [30]: 0.8064; GPCR activation (heatmap value) [31]: -0.3243; GPCR activation (heatmap value) [32]: 0.314; GPCR activation (heatmap value) [33]: -0.2146; GPCR activation (heatmap value) [34]: 0.2945; GPCR activation (heatmap value) [35]: 0.04774
